The results in this text go back to patent US20250074891A1 (Anaxis Pharma Pty Ltd., priority 2021, published 2025).

One test deals with MLKL (full length) (Homo sapiens (Human), UniProt Q8NB16). Put plainly: KINOMEscan binding assay, MLKL (full length). To be noted: Table 35. The method, then: Kinase assays. For most assays, kinase-tagged T7 phage strains were grown in parallel in 24-well blocks in an E. coli host derived from the BL21 strain. E. coli were grown to log-phase and infected with T7 phage from a frozen stock (multiplicity of infection=0.4) and incubated with shaking at 32° C. until lysis (90-150 minutes).
Sequence of MLKL (full length) (Q8NB16 whole entry): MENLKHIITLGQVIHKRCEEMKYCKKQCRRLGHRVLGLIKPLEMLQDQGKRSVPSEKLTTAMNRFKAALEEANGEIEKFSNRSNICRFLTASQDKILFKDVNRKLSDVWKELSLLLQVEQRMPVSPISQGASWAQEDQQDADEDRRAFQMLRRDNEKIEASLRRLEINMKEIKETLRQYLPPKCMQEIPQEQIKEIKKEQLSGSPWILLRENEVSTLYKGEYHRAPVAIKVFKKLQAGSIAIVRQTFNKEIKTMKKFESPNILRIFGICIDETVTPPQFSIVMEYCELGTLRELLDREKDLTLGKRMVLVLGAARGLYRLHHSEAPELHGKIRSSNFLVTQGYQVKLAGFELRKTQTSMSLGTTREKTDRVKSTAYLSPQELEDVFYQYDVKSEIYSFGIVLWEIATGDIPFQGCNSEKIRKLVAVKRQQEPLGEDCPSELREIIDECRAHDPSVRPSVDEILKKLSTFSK
The Hill Slope was set to −1.

The target of a further test is RIP1 (Homo sapiens (Human), UniProt Q13546). Put plainly: KINOMEscan binding assay, RIP1. To be noted: Table 35.
Sequence of RIP1 (Q13546 whole entry): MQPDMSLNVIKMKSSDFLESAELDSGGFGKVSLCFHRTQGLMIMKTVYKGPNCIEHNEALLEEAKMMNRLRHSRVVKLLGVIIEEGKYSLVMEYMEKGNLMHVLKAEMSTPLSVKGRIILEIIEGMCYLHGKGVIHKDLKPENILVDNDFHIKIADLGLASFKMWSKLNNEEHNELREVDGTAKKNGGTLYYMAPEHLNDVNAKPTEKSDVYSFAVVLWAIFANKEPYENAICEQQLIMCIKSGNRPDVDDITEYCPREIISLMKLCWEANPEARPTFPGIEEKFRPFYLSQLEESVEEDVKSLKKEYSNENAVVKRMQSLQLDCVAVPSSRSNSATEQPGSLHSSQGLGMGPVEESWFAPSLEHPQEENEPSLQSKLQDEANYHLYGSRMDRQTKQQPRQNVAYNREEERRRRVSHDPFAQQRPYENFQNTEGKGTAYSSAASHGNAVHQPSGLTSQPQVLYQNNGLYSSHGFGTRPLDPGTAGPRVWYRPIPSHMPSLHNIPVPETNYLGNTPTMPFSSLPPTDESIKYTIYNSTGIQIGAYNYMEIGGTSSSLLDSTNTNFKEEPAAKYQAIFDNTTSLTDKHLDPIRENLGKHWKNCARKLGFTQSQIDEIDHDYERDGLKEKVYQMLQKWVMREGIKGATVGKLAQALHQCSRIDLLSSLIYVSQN

One may read the Kd as a measure of binding affinity in units of concentration. A higher Kd goes with lower affinity.

Each structure is given as a SMILES string.

On to `CCS(=O)(=O)Nc1ccc(-c2n[nH]c(Nc3ccnc(OC)c3)c2C(N)=O)cc1OCc1ccc(F)cc1` [Compound 18, 3-(4-(ethylsulfonamido)-3-((4-fluorobenzyl)oxy)phenyl) 5-((2-methoxypyridin-4-yl)amino)-1H-pyrazole-4-carboxamide], for which the results for the Kd on MLKL (full length) and on RIP1 were below 0.01 µM and above 30 µM, respectively.

In turn, `CCS(=O)(=O)Nc1ccc(-c2n[nH]c(Nc3cccc(C(F)(F)F)n3)c2C(N)=O)cc1OCc1cccnc1` [Compound 33, 3-(4-(ethylsulfon-amido)-3-(pyridin-3-ylmethoxy)phenyl)-5-((6-(trifluoro-methyl)pyridin-2-yl)amino)-1H-pyrazole-4-carboxamide] gave a Kd on RIP1 above 30 µM.

On to `NC(=O)c1c(-c2ccc(NS(=O)(=O)CC(F)(F)F)cc2)n[nH]c1Nc1cccc(C(F)(F)F)n1` [Compound 43, 3-(4-((2,2,2-trifluoroethyl)sulfonamido)phenyl)-5-((6-(trifluoromethyl)pyridin-2-yl)amino)-1H-pyrazole-4-carboxamide], for which the figures for the dissociation constant Kd on MLKL (full length) and on RIP1 were below 0.01 µM and above 30 µM, respectively.

Take `NC(=O)c1c(-c2ccc(NS(=O)(=O)CC(F)F)cc2)n[nH]c1Nc1cccc(C(F)(F)F)n1` [Compound 49, 3-(4-((2,2-difluoroethyl)sulfonamido)phenyl)-5-((6-(trifluoromethyl)pyridin-2-yl)amino)-1H-pyrazole-4-carboxamide]: the Kd is below 0.01 µM on MLKL (full length) and above 30 µM on RIP1.

In the case of `NC(=O)c1c(-c2ccc(NS(=O)(=O)C3CC3)cc2)n[nH]c1Nc1cccc(C(F)(F)F)n1` [Compound 52, 3-(4-(cyclopropanesulfonamido)phenyl)-5-((6-(trifluoromethyl)pyridin-2-yl)amino)-1H-pyrazole-4-carboxamide], the values for the Kd at MLKL (full length) and on RIP1 were below 0.01 µM and above 30 µM, respectively.

With `NC(=O)c1c(-c2ccc(NS(=O)(=O)C(F)F)cc2)n[nH]c1Nc1cccc(C(F)(F)F)n1` [Compound 53, 3-(4-((difluoromethyl)sulfonamido)phenyl)-5-((6-(trifluoromethyl)pyridin-2-yl)amino)-1H-pyrazole-4-carboxamide], the values for the Kd on MLKL (full length) and on RIP1 were below 0.01 µM and above 30 µM, respectively.

For `CC(C)S(=O)(=O)Nc1ccc(-c2n[nH]c(Nc3cccc(C(F)(F)F)n3)c2C(N)=O)cc1` [Compound 54, 3-(4-((1-methylethyl)sulfonamido)phenyl)-5-((6-(trifluoromethyl)pyridin-2-yl)amino)-1H-pyrazole-4-carboxamide], the Kd at MLKL (full length) was below 0.01 µM; at RIP1, above 30 µM.

As for `NC(=O)c1c(-c2ccc(NS(=O)(=O)Cc3ccc(F)cc3)cc2)n[nH]c1Nc1cccc(C(F)(F)F)n1` [Compound 55, 3-(4-(((4-fluorophenyl)methyl)sulfonamido)phenyl)-5-((6-(trifluoromethyl)pyridin-2-yl)amino)-1H-pyrazole-4-carboxamide], the Kd at RIP1 is above 30 µM.

Regarding `NC(=O)c1c(-c2ccc(NS(=O)(=O)Cc3ccc(Cl)c(Cl)c3)cc2)n[nH]c1Nc1cccc(C(F)(F)F)n1` [Compound 56, 3-(4-((3,4-dichlorophenyl)methylsulfonamido)phenyl)-5-((6-(trifluoromethyl)pyridin-2-yl)amino)-1H-pyrazole-4-carboxamide], the Kd on RIP1 is above 30 µM.

In turn, `NC(=O)c1c(-c2ccc(NS(=O)(=O)Cc3ccccc3Cl)cc2)n[nH]c1Nc1cccc(C(F)(F)F)n1` [Compound 58, 3-(4-(((2-chlorophenyl)methyl)sulfonamido)phenyl)-5-((6-(trifluoromethyl)pyridin-2-yl)amino)-1H-pyrazole-4-carboxamide] showed a Kd at RIP1 above 30 µM.

`CCS(=O)(=O)Nc1ccc(-c2n[nH]c(Nc3cnccn3)c2C(N)=O)cc1OC` [Compound 61, 3-(4-(ethylsulfon-amido)-3-methoxy-phenyl)-5-(pyrazin-2-ylamino)-1H-pyrazole-4-carboxamide]: the Kd at RIP1 is above 30 µM.

`CCS(=O)(=O)Nc1ccc(-c2n[nH]c(Nc3cnc(C(C)C)cn3)c2C(N)=O)cc1` [Compound 66, 3-(4-(ethylsulfonamido)phenyl)-5-((5-isopropylpyrazin-2-yl)amino)-1H-pyrazole-4-carboxamide]: the Kd was below 0.01 µM on MLKL (full length) and above 30 µM at RIP1.

Consider `CC(C)S(=O)(=O)Nc1ccc(-c2n[nH]c(Nc3cnccn3)c2C(N)=O)cc1` [Compound 71, 3-(4-((1-methylethyl)sulfonamido)phenyl)-5-(pyrazin-2-ylamino)-1H-pyrazole-4-carboxamide], for which the Kd on MLKL (full length) was below 0.01 µM; on RIP1, above 30 µM.

`NC(=O)c1c(-c2ccc(NS(=O)(=O)C3CCCCC3)cc2)n[nH]c1Nc1cnccn1` [Compound 74, 3-(4-(cyclohexanesulfonamido)phenyl)-5-(pyrazin-2-ylamino)-1H-pyrazole-4-carboxamide] displayed a Kd on RIP1 above 30 µM.

Regarding `NC(=O)c1c(-c2ccc(NS(=O)(=O)Cc3ccccc3)cc2)n[nH]c1Nc1cnccn1` [Compound 77, 3-(4-((phenylmethyl)sulfonamido)phenyl)-5-(pyrazin-2-ylamino)-1H-pyrazole-4-carboxamide], on RIP1, the Kd is above 30 µM.

With `CCS(=O)(=O)Nc1ccc(-c2n[nH]c(Nc3cc(C(F)(F)F)ccn3)c2C(N)=O)cc1` [Compound 85, 3-(4-(ethylsulfonamido)phenyl)-5-((4-(trifluoromethyl)pyridin-2-yl)amino)-1H-pyrazole-4-carboxamide], at RIP1, the Kd was above 30 µM.

Consider `CCS(=O)(=O)Nc1ccc(-c2n[nH]c(Nc3ccc4ccccc4c3)c2C(N)=O)cc1` [Compound 86, 3-(4-(ethylsulfonamido)phenyl)-5-(naphthalen-2-ylamino)-1H-pyrazole-4-carboxamide], for which the figures for the Kd at MLKL (full length) and at RIP1 were below 0.01 µM and above 30 µM, respectively.

`CCS(=O)(=O)Nc1ccc(-c2n[nH]c(Nc3ccc(OC)cn3)c2C(N)=O)cc1` [Compound 88, 3-(4-(ethylsulfonamido)phenyl)-5-((5-methoxypyridin-2-yl)amino)-1H-pyrazole-4-carboxamide] registered a Kd on MLKL (full length) below 0.01 µM.

As for `CCS(=O)(=O)Nc1ccc(-c2n[nH]c(Nc3ccc4ccccc4n3)c2C(N)=O)cc1` [Compound 89, 3-(4-(ethylsulfonamido)phenyl)-5-(quinolin-2-ylamino)-1H-pyrazole-4-carboxamide], the Kd at MLKL (full length) is below 0.01 µM.

`CCS(=O)(=O)Nc1ccc(-c2n[nH]c(Nc3cccc(C)n3)c2C(N)=O)cc1` [Compound 94, 3-(4-(ethylsulfonamido)phenyl)-5-((6-methylpyridin-2-yl)amino)-1H-pyrazole-4-carboxamide] returned a Kd at RIP1 above 30 µM.

As for `CCS(=O)(=O)Nc1ccc(-c2n[nH]c(Nc3cccc(OC)n3)c2C(N)=O)cc1` [Compound 107, 3-(4-(ethylsulfonamido)phenyl)-5-((6-methoxypyridin-2-yl)amino)-1H-pyrazole-4-carboxamide], the results for the Kd on MLKL (full length) and on RIP1 were below 0.01 µM and above 30 µM, respectively.

Turning to `C#CCS(=O)(=O)Nc1ccc(-c2n[nH]c(Nc3ccnc(OCCOC)c3)c2C(N)=O)cc1` [Compound 109, 5-((2-(2-methoxyethoxy)pyridin-4-yl)amino)-3-(4-(prop-2-yn-1-ylsulfonamido)phenyl)-1H-pyrazole-4-carboxamide], the Kd on MLKL (full length) is below 0.01 µM; at RIP1, above 30 µM.

On to `COCCOc1cc(Nc2[nH]nc(-c3ccc(NS(=O)(=O)C(F)(F)F)cc3)c2C(N)=O)ccn1` [Compound 114, 5-((2-(2-methoxyethoxy)pyridin-4-yl)amino)-3-(4-((trifluoromethyl)sulfonamido)phenyl)-1H-pyrazole-4-carboxamide], for which the Kd on MLKL (full length) is below 0.01 µM; at RIP1, above 30 µM.

In turn, `CCS(=O)(=O)Nc1ccc(-c2n[nH]c(Nc3ccnc(OC)c3)c2C(N)=O)cc1` [Compound 121, 3-(4-(ethylsulfonamido)phenyl)-5-((2-methoxypyridin-4-yl)amino)-1H-pyrazole-4-carboxamide] registered a Kd at MLKL (full length) below 0.01 µM.

Consider `COCCOc1cc(Nc2[nH]nc(-c3ccc(NS(C)(=O)=O)cc3)c2C(N)=O)ccn1` [Compound 122, 5-((2-(2-methoxyethoxy)pyridin-4-yl)amino)-3-(4-(methylsulfonamido)phenyl)-1H-pyrazole-4-carboxamide], for which the results for the Kd at MLKL (full length) and at RIP1 were below 0.01 µM and above 30 µM, respectively.

`CCS(=O)(=O)Nc1ccc(-c2n[nH]c(Nc3cccc(OCCOC)n3)c2C(N)=O)cc1` [Compound 128, 3-(4-(ethylsulfonamido)phenyl)-5-((6-(2-methoxyethoxy)pyridin-2-yl)amino)-1H-pyrazole-4-carboxamide] came in with a Kd at RIP1 above 30 µM.

`NC(=O)c1c(-c2ccc(NS(=O)(=O)Cc3cccc(Cl)c3)cc2)n[nH]c1Nc1ccccn1` [Compound 129, 3-(4-(((3-chlorophenyl)methyl)sulfonamido)phenyl)-5-(pyridin-2-ylamino)-1H-pyrazole-4-carboxamide] displayed a Kd on RIP1 above 30 µM.

`NC(=O)c1c(-c2ccc(NS(=O)(=O)CCc3ccccc3)cc2)n[nH]c1Nc1ccccn1` [Compound 130, 3-(4-((2-phenylethyl)sulfonamido)phenyl)-5-(pyridin-2-ylamino)-1H-pyrazole-4-carboxamide] came in with a Kd on RIP1 above 30 µM.

With `CCS(=O)(=O)Nc1ccc(-c2n[nH]c(Nc3ccccn3)c2C(N)=O)cc1` [Compound 131, 3-(4-(ethylsulfonamido)phenyl)-5-(pyridin-2-ylamino)-1H-pyrazole-4-carboxamide], the Kd was below 0.01 µM at MLKL (full length) and above 30 µM at RIP1.

At RIP1, `NC(=O)c1c(-c2ccc(NS(=O)(=O)c3ccccc3)cc2)n[nH]c1Nc1ccccn1` [Compound 133, 3-(4-(phenylsulfonamido)phenyl)-5-(pyridin-2-ylamino)-1H-pyrazole-4-carboxamide] returned a Kd above 30 µM.

Regarding `NC(=O)c1c(-c2ccc(NS(=O)(=O)CC3CCC3)cc2)n[nH]c1Nc1ccccn1` [Compound 134], the Kd on RIP1 was above 30 µM.
